Where two headings read alike, the source gives them in different places. Bounds are passed on as bounds.

One assay deals with T1, SIRT2 (Homo sapiens, UniProt Q8IXJ6).
T1 construct: For assay experiments, strep-tagged human SIRT1134−747 and SIRT256-356 were expressed and purified as previously; Strep-tag; made in house; host or cells: E. coli BL21 Star (DE3)
T1 sequence (Q8IXJ6 56-356 limits assumed): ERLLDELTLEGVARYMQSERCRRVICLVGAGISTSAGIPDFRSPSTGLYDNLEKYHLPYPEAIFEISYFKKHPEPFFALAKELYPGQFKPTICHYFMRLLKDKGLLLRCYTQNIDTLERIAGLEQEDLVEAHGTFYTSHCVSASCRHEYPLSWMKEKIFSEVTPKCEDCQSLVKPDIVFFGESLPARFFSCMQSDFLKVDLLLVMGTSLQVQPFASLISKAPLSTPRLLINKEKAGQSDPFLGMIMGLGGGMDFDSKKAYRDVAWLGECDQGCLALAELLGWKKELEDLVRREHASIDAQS
Nature of the assay: Fluorescence-based deacetylation assay (ZMAL-assay), SIRT2. It is filed as biochemical. Conditions: 37 °C, assay limit 0.10 µM, read-out: SIRT2 (deac.) IC50. Here is the method: Determination of IC50 values (SIRT1, SIRT2, SIRT3) via fluorescence-based deacetylation assay […]
The fluorescence-based deacetylation assay was conducted in a black 384-well microplate (OptiPlate-384 F, PerkinElmer) with a total volume of 30 µL per well and a final DMSO concentration of 2% (v/v) according to a […]
concentration of 100 nM) in assay buffer (50 mM Tris, 137 mM NaCl, 2.7 mM KCl, 1m MgCl2, 0.01% Tween, 0.05 mg/mL BSA, 0.2 mM TCEP, pH 8.0), 5 µL of substrate (ZMAL, final concentration of 10.5 µM), 5 µL of NAD+ (final concentration of 500 µM) and 10 µL of inhibitor solution (final concentration of 30 µM – 0.014 µM, serial 1:3 dilutions) was incubated at 37 °C and 300 rpm for 4 h. A solution of trypsin (final concentration of 0.5 mg/mL) and nicotinamide (final concentration of 4 mM) was added and incubated at 37 °C and 300 rpm for 30 min to stop the reaction. Samples with 2% (v/v) DMSO instead of inhibitor were prepared as a positive control, and samples with 2% (v/v) DMSO instead of SIRT enzyme were prepared as a negative control. Fluorescence intensity was measured with a microplate reader (λEx = 380-10 nm, λEm = 460 nm, BMG POLARstar Optima, BMG Labtech, Germany). IC50 values were then determined using a nonlinear regression fit with Origin Pro 2019 software. All experiments were performed at least in duplicates. […]

Assay [1] deals with T2, NanoLuc–SIRT2 fusion protein in HEK293T cells (Homo sapiens, UniProt Q8IXJ6).
T2 construct: transfected HEK293T cells expressing the NanoLuc-tagged SIRT250-356 fusion protein were used instead of transient; expressed in transfected cells; host or cells: HEK293T (stably transfected)
T2 sequence (Q8IXJ6 50-356 limits assumed): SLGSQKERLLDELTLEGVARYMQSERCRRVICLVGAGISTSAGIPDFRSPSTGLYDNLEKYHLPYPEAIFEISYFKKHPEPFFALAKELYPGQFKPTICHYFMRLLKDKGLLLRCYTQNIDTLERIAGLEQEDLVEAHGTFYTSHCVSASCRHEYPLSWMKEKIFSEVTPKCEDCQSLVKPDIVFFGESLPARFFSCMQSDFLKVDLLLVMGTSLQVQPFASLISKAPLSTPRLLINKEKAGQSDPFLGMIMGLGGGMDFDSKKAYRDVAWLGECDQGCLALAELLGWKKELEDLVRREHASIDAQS
Nature of the assay: NanoBRET cellular target engagement assay. The format is cell-based. The note with it: for Ki: read-out: NanoBRET K i (Cheng–Prusoff). The procedure:
The NanoBRET target engagement assay was performed as previously described[2] with the modification that stably transfected HEK293T cells expressing the NanoLuc-tagged SIRT250-356 fusion protein were used instead of transient transfection. Briefly, HEK293T-NLuc- SIRT250-356 cells were cultured under standard conditions (37 °C, 5% CO2) in DMEM supplemented with 10% fetal bovine serum, 2 mM glutamine, and 300 µg/mL hygromycin as a selection marker. For the assay, cells were trypsinized, resuspended in Opti-MEM® reduced serum medium, and adjusted to a concentration of 2 × 10^5 cells per mL. […]
µM was used. Serially diluted inhibitor and tracer were added to the cell suspension, and 100 μL were seeded into 96-well white, sterile, nonbinding surface plates. To evaluate the cellular permeability of LTDi-1 (6), the non-ionic detergent digitonin (50 µg/ml) was added. Plates were incubated at 37 °C with 5% CO2 for 2 h. For BRET measurements, NanoBRET NanoGlo Substrate (Promega cat. #N1571) was added to the wells according to the […]
All measurements were performed using the 2102 EnVisionTM Multilabel Reader (PerkinElmer), equipped with a 460 nm filter (donor) and a 615 nm filter (acceptor). The BRET ratio was calculated as the ratio of acceptor to donor signal, and data were normalized to vehicle-treated controls. Apparent intracellular binding affinities (EC50 values) were determined by fitting dose-response curves using nonlinear regression analysis in GraphPad Prism. […]
For orientation: In BRET a luciferase serves as donor, and the signal depends on an acceptor being close.

Where [2] appears, read: 2 µM tracer, co-treatment with digitonin.

Usually IC50 stands for the point on the concentration scale where inhibition reaches its midpoint. As to `Cc1cc(C)nc(SCC(=O)Nc2ncc(Cc3cccc(OCc4c[nH]nn4)c3)s2)n1` [Compound 7], the IC50 at SIRT2 amounted to 7800 ± 2100 nM.

As a reminder, the EC50 is the midpoint of the concentration-response curve. Consider `CCCCCCCCCCCCc1cn(CCCC[C@H](NC(=O)[C@H](CCCCN)NC(=O)[C@@H]2CCCN2C(=O)[C@H](CC(C)C)NC(=O)[C@H](C)NC(=O)[C@H](CCC(=O)O)NC(C)=O)C(=O)N[C@H](C(=O)NCC(=O)NCC(N)=O)[C@@H](C)O)nn1` [Compound 6], for which the EC50 in assay [1] (setting [2]) came out at 160 ± 20 nM; in assay [1] (2 µM tracer, without digitonin) it was 340 ± 90 nM. Further, the Ki in assay [1] (setting [2]) came to 18 ± 2 nM; in assay [1] (2 µM tracer, without digitonin), 38 ± 10 nM. The IC50 on SIRT2 was < 100 nM.

In assay [1] (without digitonin), `COCCn1cc(COc2cccc(Cc3cnc(NC(=O)CSc4nc(C)cc(C)n4)s3)c2)nn1` [Compound 1, reference compound] gave an EC50 of 2700 ± 100 nM.

For the origin of these results see publication PMC12723449, “From Pharmacophore to Warhead: NAD^+‐Targeting Triazoles as Mechanism‐Based Sirtuin Inhibitors” (Angewandte Chemie (International Ed. in English), 2025).
